Assays:
[1] = tested on: P-gp; parameters: method as in PMID 22044878; settings: cited from earlier work
[2] = tested on: P-glycoprotein (P-gp); experiment: Flow cytometry analysis of P-glycoprotein expression in Caco-2 cells (UIC2-PE antibody); assay type: cell-based, human; settings: 20 µM, 24 h
Description: However, the ability of compounds 9–17 to interfere with the fluorescence of the UIC2-PE antibody was assessed first. For this purpose, Caco-2 cells were incubated for 24 h, in the presence or absence of thioxanthone derivatives (20 μM), and subsequently analysed, by flow cytometry, as described for the P-gp expression assay. A remarkable increase in the intracellular fluorescence of cells exposed to compounds 10–13 and 15–17 was observed, making it impossible to assess the effect of these thioxanthone derivatives on P-gp expression. In fact, compounds 15–17 had previously been reported as fluorescent compounds [15] and this characteristic limited some of the studies reported herein. […] Briefly, Caco-2 cells were seeded in 24-well plates at a density of 60,000 cells/cm^2 and exposed, three days after seeding, to a non-cytotoxic concentration of the tested compounds (20 µM). […] The cells were then washed twice with HBSS (+/+), centrifuged (300 g for 5 min, at 4 °C) and kept on ice until analysis. […] The parameter used for comparison was the mean fluorescence intensity (MFI), calculated as a percentage of control cells (0 μM). The cells autofluorescence (unlabelled cells with or without exposure to the tested compounds) was also evaluated to eliminate its potential contribution to the analysed fluorescence signals. […]

[3] = tested on: E. faecalis B3/101; experiment: Synergy with vancomycin (antibiotic MIC in presence of compound); assay type: cell-based, Enterococcus faecalis
From the text: The referred library of thioxanthones was initially tested for their antimicrobial activity against six bacterial strains: the Gram-negative Escherichia coli ATCC 25922, Pseudomonas aeruginosa ATCC 27853 and Salmonella enterica serovar Typhimurium SL1344 (SE03), with the acrA gene deleted, and the Gram-positive Staphylococcus aureus ATCC 29213, Enterococcus faecalis ATCC 29212 and the methicillin and ofloxacin-resistant clinical isolate S. aureus 272123. For the synergy assay, two clinically relevant isolates were used: the extended-spectrum β-lactamase (ESBL)-producing E. coli SA/2 [23] and the vancomycin-resistant E. faecalis (VRE) B3/101 [23]. The antibiotics used were cefotaxime (CTX) and vancomycin (VAN), respectively.
The combined effect of the compounds and clinically relevant antimicrobial drugs was evaluated by determining the antibiotic’s MIC in the presence of each compound. […] The antibiotic tested was serially diluted, whereas the concentration of each compound was kept fixed. In the case of compound 12, the concentration used was 8 µg/mL. For all other compounds, the concentration used was 64 µg/mL. Antibiotic MICs were determined as described above.

[4] = tested on: Caco-2 cells; experiment: Cytotoxicity in Caco-2 cells, sulforhodamine B (SRB) binding assay; assay type: cell-based, human; settings: 24 h after exposure
Description: Caco-2 cells were routinely cultured in 75 cm^2 flasks using DMEM with 4.5 g/L glucose supplemented with 10% FBS, 1% NEAA and 1% antibiotic. Cells were maintained at 37 °C, in a 5% CO2 and 95% air atmosphere, and the cell culture medium was changed every 2−3 days. Cultures were passaged weekly by trypsinization (0.25% trypsin/1 mM EDTA). In all experiments, the cells were seeded at a density of 60,000 cells/cm^2 and used three days after seeding, when confluence was reached. The cells used in all experiments were taken between the 55th and 64th passages.
The compounds’ (0−20 μM) cytotoxicity was evaluated by the neutral red (NR) uptake and Sulforhodamine B (SRB) binding assays, 24 h after exposure. Caco-2 cells were seeded onto 96-well plates at a density of 60,000 cells/cm^2 and exposed, after reaching confluence (three days after seeding), to the compounds (0–20 μM), in a fresh cell culture medium. Triton™ X-100 (0.1%) was used as a positive control.
The SRB binding assay is based on the pH-dependent binding of SRB to basic amino acids of cellular proteins under mild acidic conditions. […] The bounded SRB was then extracted with a Tris base solution (10 mM, pH 10.5) and the absorbance was measured, at 540 nm, in a multi-well plate reader (PowerWaveX BioTek Instruments, VT, USA). […]

Q: For `CCCOc1ccc(NCCN(CC)CC)c2c(=O)c3ccccc3sc12` [Compound 2], which “type of P-gp inhibition” value [1] is on record?
A: The value was “competitive inhibitor”.

Q: What does the source list for `CCCOc1ccc(N2CCNC(=O)C2)c2c(=O)c3ccccc3sc12` [Compound 9, 4-(9-Oxo-4-propoxy-9H-thioxanthen-1-yl)piperazin-2-one]?
A: P-gp expression levels (control cells 100%) [2]: no significant differences; decrease of the MIC of VAN [3]: 16 fold

Q: Which “P-gp expression levels (control cells 100%)” value [2] does the source give for `CCCOc1ccc(Br)c2c(=O)c3ccccc3sc12` [Compound 14, 1-Bromo-4-propoxy-9H-thioxanthen-9-one] here?
A: Its value is 83%.

Q: Which “SRB binding vs control cells” value ([4]; 10 µM) does the source give for `CCCOc1ccc2nc(NCc3ccccc3Cl)nc3c2c1Sc1ccccc1-3` [Compound 17] here?
A: Its value is “no significant differences”.

Q: What about the “SRB binding (relative to control cells)” value ([4]; 20 µM) of the same compound?
A: The value was 105.8%.
